The subject of assay [1] is p53 signaling (p53RE-bla HCT-116 cells).
Assay [2] shares this test system. Briefly: cells. The conditions noted are these: Homo sapiens; for Emax: HCT-116, read-out: p53 activation efficacy, primary screening.
The test system is the same in assay [3]. This is another data set of the same source.
For assay [4] the test system is unchanged. Briefly: cells. The conditions noted are these: for EC50 / Emax: Homo sapiens. Type of assay: cell-based.
Where [5] appears, read: HCT-116, read-out: EC50, p53 activation, primary screening.
[6] abbreviates: HCT-116, read-out: p53 activation EC50, primary screening.

The text below walks through data of publication PMC9151520 (Archives of Toxicology, 2022).

Counter-ions that a name gives are not always drawn. Like-named read-outs stand apart in the source and are kept apart here.

The EC50 is the concentration at which the effect is half-maximal. `O=c1[nH]c(=O)n([C@H]2C[C@H](O)[C@@H](CO)O2)cc1F` [Floxuridine]: in the assay with p53RE-bla HCT-116 cells, the “EC50, viability, cherry pick confirmation” value is “inactive”; the “EC50, viability, primary screening” value is “inactive”; the “Efficacy, viability, cherry pick confirmation” value was “inactive”; the “Efficacy, viability, primary screening” value was “inactive”. Also, in assay [1], the “EC50, p53 activation, cherry pick confirmation” value is “inactive”; the “EC50, p53 activation, primary screening” value was “inactive”; the “Efficacy, p53 activation, cherry pick confirmation” value was “inactive”; the “Efficacy, p53 activation, primary screening” value is “inactive”. Moreover, the EC50 in assay [2] (setting [5]) came to 0.326 µM. In assay [3], the “EC50, p53 activation, cherry pick confirmation” value is “inactive” and the “Efficacy, p53 activation, cherry pick confirmation” value was “inactive”. For the same molecule, the EC50 in assay [4] (HCT-116, read-out: EC50, p53 activation, cherry pick confirmation) turned out to be 15.7 µM. Besides, in assay [4] (setting [5]), the EC50 was found to be 0.643 µM. The Emax in assay [4] (HCT-116, read-out: Efficacy, p53 activation, cherry pick confirmation) was found to be 59.4%.
As to `c1ccc2c(c1)-c1cccc3cccc-2c13` [Fluoranthene], in the assay with p53RE-bla HCT-116 cells, the “Viability EC50, cherry pick confirmation” value was “inactive”; the “Viability EC50, primary screening” value was “inactive”; the “Viability efficacy, cherry pick confirmation” value was “inactive”; the “Viability efficacy, primary screening” value was “inactive”. For the same molecule, in assay [1], the “p53 activation EC50, cherry pick confirmation” value was “inactive”; the “p53 activation EC50, primary screening” value is “inactive”; the “p53 activation efficacy, cherry pick confirmation” value was “inactive”; the “p53 activation efficacy, primary screening” value is “inactive”. Also, the EC50 in assay [2] (setting [6]) came out at 24.4 µM. Further, the Emax in assay [2] turned out to be 33.6%. Besides, in assay [3], the “p53 activation EC50, cherry pick confirmation” value is “inactive” and the “p53 activation efficacy, cherry pick confirmation” value is “inactive”. Further, in assay [4], the “p53 activation EC50, cherry pick confirmation” value was “inactive”; the “p53 activation EC50, primary screening” value was “inactive”; the “p53 activation efficacy, cherry pick confirmation” value was “inactive”; the “p53 activation efficacy, primary screening” value was “inactive”.
For `CN1CCc2cc3c(cc2C1O)OCO3` (stereo not shown) [Hydrastinine hydrochloride], in the assay with p53RE-bla HCT-116 cells, the “Viability EC50, cherry pick confirmation” value is “inactive”; the “Viability EC50, primary screening” value is “inactive”; the “Viability efficacy, cherry pick confirmation” value is “inactive”; the “Viability efficacy, primary screening” value is “inactive”. Moreover, in assay [1], the “p53 activation EC50, cherry pick confirmation” value is “inactive”; the “p53 activation EC50, primary screening” value is “inactive”; the “p53 activation efficacy, cherry pick confirmation” value was “inactive”; the “p53 activation efficacy, primary screening” value was “inactive”. For the same molecule, in assay [2] (setting [6]), the EC50 stood at 28.6 µM. Moreover, the Emax in assay [2] amounted to 56.5%. In assay [3], the “p53 activation EC50, cherry pick confirmation” value is “inactive” and the “p53 activation efficacy, cherry pick confirmation” value is “inactive”. For the same molecule, in assay [4], the “p53 activation EC50, cherry pick confirmation” value is “inactive”; the “p53 activation EC50, primary screening” value is “inactive”; the “p53 activation efficacy, cherry pick confirmation” value was “inactive”; the “p53 activation efficacy, primary screening” value was “inactive”.
For the molecule `O=C1OC(O)C(Cl)=C1Cl` (stereo not shown) [Mucochloric acid], in the assay on p53RE-bla HCT-116 cells, the “Viability EC50, cherry pick confirmation” value was “inactive”; the “Viability EC50, primary screening” value is “inactive”; the “Viability efficacy, cherry pick confirmation” value was “inactive”; the “Viability efficacy, primary screening” value is “inactive”. In assay [1], the “p53 activation EC50, cherry pick confirmation” value is “inactive”; the “p53 activation EC50, primary screening” value is “inactive”; the “p53 activation efficacy, cherry pick confirmation” value is “inactive”; the “p53 activation efficacy, primary screening” value is “inactive”. For the same molecule, the EC50 in assay [2] (setting [6]) came out at 49.4 µM. Also, in assay [2], the Emax is 51.8%. Further, in assay [3], the “p53 activation EC50, cherry pick confirmation” value was “inactive” and the “p53 activation efficacy, cherry pick confirmation” value is “inactive”. For the same molecule, in assay [4], the “p53 activation EC50, primary screening” value was “inactive” and the “p53 activation efficacy, primary screening” value was “inactive”. The EC50 in assay [4] (HCT-116, read-out: p53 activation EC50, cherry pick confirmation) amounted to 15.9 µM. Also, the Emax in assay [4] (HCT-116, read-out: p53 activation efficacy, cherry pick confirmation) was 180%.
As to `c1cc2ccc3cccc4ccc(c1)c2c34` [Pyrene], in the assay with p53RE-bla HCT-116 cells, the “Viability EC50, cherry pick confirmation” value was “inactive”; the “Viability EC50, primary screening” value is “inactive”; the “Viability efficacy, cherry pick confirmation” value is “inactive”; the “Viability efficacy, primary screening” value was “inactive”. In assay [1], the “p53 activation EC50, cherry pick confirmation” value was “inactive”; the “p53 activation EC50, primary screening” value is “inactive”; the “p53 activation efficacy, cherry pick confirmation” value is “inactive”; the “p53 activation efficacy, primary screening” value is “inactive”. The EC50 in assay [2] (setting [6]) is 21.7 µM. For the same molecule, the Emax in assay [2] was determined as 51.6%. In assay [3], the “p53 activation EC50, cherry pick confirmation” value was “inactive” and the “p53 activation efficacy, cherry pick confirmation” value is “inactive”. In addition, in assay [4], the “p53 activation EC50, cherry pick confirmation” value was “inactive”; the “p53 activation EC50, primary screening” value was “inactive”; the “p53 activation efficacy, cherry pick confirmation” value was “inactive”; the “p53 activation efficacy, primary screening” value is “inactive”.
For the molecule `CC(O)CN(CC(C)O)CC(C)O` (stereo not shown) [Triisopropanolamine], in the assay on p53RE-bla HCT-116 cells, the “Viability EC50, cherry pick confirmation” value is “inactive”; the “Viability EC50, primary screening” value is “inactive”; the “Viability efficacy, cherry pick confirmation” value was “inactive”; the “Viability efficacy, primary screening” value was “inactive”. Besides, in assay [1], the “p53 activation EC50, cherry pick confirmation” value was “inactive”; the “p53 activation EC50, primary screening” value is “inactive”; the “p53 activation efficacy, cherry pick confirmation” value was “inactive”; the “p53 activation efficacy, primary screening” value was “inactive”. For the same molecule, the EC50 in assay [2] (setting [6]) is 37 µM. For the same molecule, the Emax in assay [2] came to 40%. For the same molecule, in assay [3], the “p53 activation EC50, cherry pick confirmation” value is “inactive” and the “p53 activation efficacy, cherry pick confirmation” value is “inactive”. In assay [4], the “p53 activation EC50, cherry pick confirmation” value is “inactive”; the “p53 activation EC50, primary screening” value was “inactive”; the “p53 activation efficacy, cherry pick confirmation” value was “inactive”; the “p53 activation efficacy, primary screening” value was “inactive”.
As to `O=P(OCC(Br)CBr)(OCC(Br)CBr)OCC(Br)CBr` (stereo not shown) [Tris(2,3-dibromopropyl) phosphate], in the assay on p53RE-bla HCT-116 cells, the “Viability EC50, cherry pick confirmation” value is “inactive”; the “Viability EC50, primary screening” value is “inactive”; the “Viability efficacy, cherry pick confirmation” value is “inactive”; the “Viability efficacy, primary screening” value was “inactive”. Also, in assay [1], the “p53 activation EC50, cherry pick confirmation” value is “inactive”; the “p53 activation EC50, primary screening” value is “inactive”; the “p53 activation efficacy, cherry pick confirmation” value is “inactive”; the “p53 activation efficacy, primary screening” value was “inactive”. Also, the EC50 in assay [2] (setting [6]) was 46.6 µM. In addition, the Emax in assay [2] stood at 38.9%. In addition, in assay [3], the “p53 activation EC50, cherry pick confirmation” value is “inactive” and the “p53 activation efficacy, cherry pick confirmation” value was “inactive”. In addition, in assay [4], the “p53 activation EC50, cherry pick confirmation” value is “inactive”; the “p53 activation EC50, primary screening” value was “inactive”; the “p53 activation efficacy, cherry pick confirmation” value is “inactive”; the “p53 activation efficacy, primary screening” value was “inactive”.
Regarding `CCCCOCCOP(=O)(OCCOCCCC)OCCOCCCC` [Tris(2-butoxyethyl) phosphate], in the assay with p53RE-bla HCT-116 cells, the “Viability EC50, cherry pick confirmation” value is “inactive”; the “Viability EC50, primary screening” value was “inactive”; the “Viability efficacy, cherry pick confirmation” value was “inactive”; the “Viability efficacy, primary screening” value is “inactive”. For the same molecule, in assay [1], the “p53 activation EC50, cherry pick confirmation” value is “inactive”; the “p53 activation EC50, primary screening” value was “inactive”; the “p53 activation efficacy, cherry pick confirmation” value is “inactive”; the “p53 activation efficacy, primary screening” value is “inactive”. The EC50 in assay [2] (setting [6]) is 35.1 µM. Moreover, in assay [2], the Emax was 48.7%. Further, in assay [3], the “p53 activation EC50, cherry pick confirmation” value was “inactive” and the “p53 activation efficacy, cherry pick confirmation” value was “inactive”. Moreover, in assay [4], the “p53 activation EC50, cherry pick confirmation” value was “inactive”; the “p53 activation EC50, primary screening” value is “inactive”; the “p53 activation efficacy, cherry pick confirmation” value is “inactive”; the “p53 activation efficacy, primary screening” value was “inactive”.
Take `C=CC1(C)OC(=O)N(c2cc(Cl)cc(Cl)c2)C1=O` (stereo not shown) [Vinclozolin]: in the assay on p53RE-bla HCT-116 cells, the “Viability EC50, cherry pick confirmation” value is “inactive”; the “Viability EC50, primary screening” value was “inactive”; the “Viability efficacy, cherry pick confirmation” value is “inactive”; the “Viability efficacy, primary screening” value was “inactive”. Further, in assay [1], the “p53 activation EC50, cherry pick confirmation” value is “inactive”; the “p53 activation EC50, primary screening” value is “inactive”; the “p53 activation efficacy, cherry pick confirmation” value was “inactive”; the “p53 activation efficacy, primary screening” value is “inactive”. The EC50 in assay [2] (setting [6]) amounted to 16.9 µM. Besides, the Emax in assay [2] amounted to 39.4%. Further, in assay [3], the “p53 activation EC50, cherry pick confirmation” value is “inactive” and the “p53 activation efficacy, cherry pick confirmation” value is “inactive”. Further, in assay [4], the “p53 activation EC50, cherry pick confirmation” value was “inactive”; the “p53 activation EC50, primary screening” value was “inactive”; the “p53 activation efficacy, cherry pick confirmation” value is “inactive”; the “p53 activation efficacy, primary screening” value was “inactive”.
